pIC50: −log10 of the molar value. Bridge positions count the residues as written; N and C are the ends. Square brackets hold non-standard residues; d marks the D form. Peptide text beside a SMILES is read from it. Nle = CCCC[C@H](N)C(=O)O
Assays:
[1] = target: T1, human Kv1.3 voltage-gated K+ channel (Homo sapiens, UniProt P22001); assay: cell-based; conditions: inhibition of thallium flux, CHO-DUKX cells with human Kv1.3; read-out: IC50
T1 construct: host or cells: CHO-DUKX

[2] = target: T2, Kv1.3 (Homo sapiens, UniProt P22001); assay: cell-based; conditions: CHO cells, whole-cell patch clamp; read-out: Potency IC50 (nM) Kv1.3
T2 construct: expressed in transfected cells; host or cells: Chinese Hamster Ovary (CHO)

[3] = target: T3, Kv1.6 (Homo sapiens, UniProt P17658); assay: cell-based; conditions: for IC50: CHO cells, whole-cell patch clamp, read-out: Potency IC50 (nM) Kv1.6; for Selectivity Kv1.6/Kv1.3: ratio IC50[Kv1.6]/IC50[Kv1.3]
T3 construct: expressed in transfected cells; host or cells: Chinese Hamster Ovary (CHO)

[4] = target: T4, Kv1.1 (Homo sapiens, UniProt Q09470); assay: cell-based; conditions: for IC50: CHO cells, whole-cell patch clamp, read-out: Potency IC50 (nM) Kv1.1; for Selectivity Kv1.1/Kv1.3: ratio IC50[Kv1.1]/IC50[Kv1.3]
T4 construct: expressed in transfected cells; host or cells: Chinese Hamster Ovary (CHO)

[5] = target: Rat whole blood (Rattus norvegicus, UniProt P15384)
[6] = target: T5, Kv1.2 (Homo sapiens, UniProt P16389); assay: cell-based; conditions: for IC50: CHO cells, whole-cell patch clamp, read-out: Potency IC50 (nM) Kv1.2
T5 construct: expressed in transfected cells; host or cells: Chinese Hamster Ovary (CHO)

[7] = tested on: Human peripheral blood mononuclear cells (PBMCs); assay: IL-2 release from anti-CD3 stimulated human PBMCs (Example 4b); type: cell-based; conditions: geometric mean, at least 6 replicates, read-out: anti-CD3 PBMC/IL-2 IC50
Protocol: Human peripheral blood mononuclear cells (PBMCs) were used to assess the effects of Kv1.3 blockers on T-cell activation as determined by IL-2 release after stimulation with anti-CD3.
(§1) Human PBMCs were obtained from Precision for Medicine (Frederick, Md.). Cells from 5 donors were used. Plate-bound anti-CD3 was used to stimulate bulk T cells in the PBMC preparations. Briefly, 96-well plates were coated with anti-CD3 antibody for app. 16 hours at 5° C., using 50 μl of a 1 μg/ml anti-CD3 solution diluted in PBS. Thereafter the plates were washed twice.
Kv1.3 blockers were subsequently diluted in medium (RPMI 1640 with Glutamax-I containing, 10% v/v Fetal Bovine Serum, 1% v/v penicillin-streptomycin Solution) and added in a volume of 50 μl. The compounds indicated in Table 4b were used at concentrations ranging from […] to 1000 nM (half log dilutions, starting concentrations varying).
(§2) Finally, 50.000 PBMCs in the same medium were added to each well in a volume of 50 μl, giving a final volume of 100 μl per well. The plates were incubated for 20-24 hours in a 37° C./5% CO2 incubator. After centrifugation of the plates, 25 μl supernatant was transferred to IL-2 detection plates (MSD Human IL-2 Tissue Culture Kit, cat #K151AHB-2) and IL-2 was measures as described by the manufacturer (Meso Scale Discovery, Rockville, Md., USA).
Results are shown in Table 4b as geometric mean of IC50 values obtained from anti-CD3 stimulated human PBMC assays. All values derive from at least 6 replicates.

[8] = tested on: Human peripheral blood mononuclear cells (PBMCs); assay: IL-2 release from anti-CD3 stimulated human PBMCs (Example 4a); type: cell-based; conditions: geometric mean, at least 4 replicates, read-out: anti-CD3 PBMC/IL-2 IC50
Protocol: Human peripheral blood mononuclear cells (PBMCs) were used to assess the effects of Kv1.3 blockers on T-cell activation as determined by IL-2 (cytokine) release after stimulation with anti-CD3.
as §1, with “2 hrs” for “app. 16 hours”, “37°” for “5°”, “μL” for “μl”, “0.5 μg/mL” for “1 μg/ml”, “1×PBS.” for “PBS.”
as §2, with “1×10^5” for “50.000”, “PBMCs” for “PBMCs in the same medium”, “100 μL,” for “50 μl,”, “200 μL” for “100 μl”
Results are shown in Table 4a as geometric mean of IC50 values obtained from anti-CD3 stimulated human PBMC assays. All values derive from at least 4 replicates.

Sequence of Rat whole blood (P15384 whole entry): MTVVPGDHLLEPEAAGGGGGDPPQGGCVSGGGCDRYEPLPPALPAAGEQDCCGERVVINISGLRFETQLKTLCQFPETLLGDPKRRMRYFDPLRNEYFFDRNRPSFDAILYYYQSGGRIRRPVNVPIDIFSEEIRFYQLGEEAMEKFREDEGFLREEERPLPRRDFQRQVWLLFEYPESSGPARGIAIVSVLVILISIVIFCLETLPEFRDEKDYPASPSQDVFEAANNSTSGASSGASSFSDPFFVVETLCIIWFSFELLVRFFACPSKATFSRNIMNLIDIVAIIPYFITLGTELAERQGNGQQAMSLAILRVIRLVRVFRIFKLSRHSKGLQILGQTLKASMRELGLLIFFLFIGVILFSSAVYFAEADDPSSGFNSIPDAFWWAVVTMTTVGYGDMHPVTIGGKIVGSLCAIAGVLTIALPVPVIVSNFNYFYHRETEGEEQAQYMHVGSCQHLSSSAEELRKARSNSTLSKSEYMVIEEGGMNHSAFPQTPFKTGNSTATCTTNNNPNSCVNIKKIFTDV
T3 sequence (P17658 whole entry): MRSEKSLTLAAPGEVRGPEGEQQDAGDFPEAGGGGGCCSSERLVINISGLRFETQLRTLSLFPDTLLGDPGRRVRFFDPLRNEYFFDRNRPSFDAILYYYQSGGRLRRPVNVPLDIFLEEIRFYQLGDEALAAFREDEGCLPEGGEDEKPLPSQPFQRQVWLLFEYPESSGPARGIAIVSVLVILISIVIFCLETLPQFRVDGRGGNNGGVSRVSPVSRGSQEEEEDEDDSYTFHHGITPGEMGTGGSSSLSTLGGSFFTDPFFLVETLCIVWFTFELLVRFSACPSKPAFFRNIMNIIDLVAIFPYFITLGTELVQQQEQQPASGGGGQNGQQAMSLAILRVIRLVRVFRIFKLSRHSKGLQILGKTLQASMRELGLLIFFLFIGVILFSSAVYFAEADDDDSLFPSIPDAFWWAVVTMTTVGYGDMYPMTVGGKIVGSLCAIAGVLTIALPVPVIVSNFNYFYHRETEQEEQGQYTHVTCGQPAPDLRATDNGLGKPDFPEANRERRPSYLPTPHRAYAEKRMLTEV
T4 sequence (Q09470 whole entry): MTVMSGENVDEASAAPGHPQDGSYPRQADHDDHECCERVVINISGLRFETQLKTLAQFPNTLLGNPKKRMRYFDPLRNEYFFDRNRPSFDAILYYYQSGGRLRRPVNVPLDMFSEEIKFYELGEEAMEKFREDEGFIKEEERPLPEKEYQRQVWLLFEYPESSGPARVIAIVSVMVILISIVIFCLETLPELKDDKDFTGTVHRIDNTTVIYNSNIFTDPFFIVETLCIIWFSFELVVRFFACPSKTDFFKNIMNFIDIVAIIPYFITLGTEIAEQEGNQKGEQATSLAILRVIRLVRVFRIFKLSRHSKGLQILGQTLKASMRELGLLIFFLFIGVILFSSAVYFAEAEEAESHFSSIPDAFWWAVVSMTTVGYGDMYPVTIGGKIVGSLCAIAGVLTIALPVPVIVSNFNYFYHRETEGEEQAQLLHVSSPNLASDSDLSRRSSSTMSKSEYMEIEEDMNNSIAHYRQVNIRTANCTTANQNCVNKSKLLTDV
T5 sequence (P16389 whole entry): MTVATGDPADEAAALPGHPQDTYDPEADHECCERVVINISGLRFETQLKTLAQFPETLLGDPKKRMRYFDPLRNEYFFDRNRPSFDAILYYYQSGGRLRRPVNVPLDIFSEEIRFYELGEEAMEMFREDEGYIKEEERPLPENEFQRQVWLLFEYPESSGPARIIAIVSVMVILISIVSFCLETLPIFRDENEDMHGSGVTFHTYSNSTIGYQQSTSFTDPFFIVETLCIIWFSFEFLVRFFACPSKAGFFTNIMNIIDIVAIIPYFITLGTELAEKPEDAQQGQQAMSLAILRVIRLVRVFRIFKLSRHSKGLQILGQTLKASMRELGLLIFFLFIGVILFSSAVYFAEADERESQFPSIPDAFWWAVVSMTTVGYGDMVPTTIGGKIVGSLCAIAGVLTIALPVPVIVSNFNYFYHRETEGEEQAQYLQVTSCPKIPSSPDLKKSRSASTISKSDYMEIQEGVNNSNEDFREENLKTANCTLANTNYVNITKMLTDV
T1 sequence (P22001 whole entry): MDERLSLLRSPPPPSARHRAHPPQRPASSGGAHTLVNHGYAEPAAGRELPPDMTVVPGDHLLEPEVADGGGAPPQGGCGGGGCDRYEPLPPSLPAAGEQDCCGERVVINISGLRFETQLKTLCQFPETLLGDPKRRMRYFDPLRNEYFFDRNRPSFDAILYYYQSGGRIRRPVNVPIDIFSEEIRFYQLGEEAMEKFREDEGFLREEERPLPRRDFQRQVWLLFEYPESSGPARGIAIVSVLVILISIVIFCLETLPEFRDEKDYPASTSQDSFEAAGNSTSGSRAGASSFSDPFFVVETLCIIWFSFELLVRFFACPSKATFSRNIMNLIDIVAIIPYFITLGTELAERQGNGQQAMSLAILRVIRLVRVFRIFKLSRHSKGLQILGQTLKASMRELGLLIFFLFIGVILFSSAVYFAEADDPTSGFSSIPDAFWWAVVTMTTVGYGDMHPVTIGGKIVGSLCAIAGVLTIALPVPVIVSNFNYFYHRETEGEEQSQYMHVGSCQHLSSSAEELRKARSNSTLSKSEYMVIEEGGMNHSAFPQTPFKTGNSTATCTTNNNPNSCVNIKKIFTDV
T2 sequence (P22001 whole entry): as above

| Molecule | pIC50 [1] | IC50 [2] [nM] | IC50 [3] [nM] | Selectivity Kv1.6/Kv1.3 [3] | IC50 [4] [nM] | Selectivity Kv1.1/Kv1.3 [4] | pIC50 [5] | IC50 [6] [nM] | pIC50 [7] | pIC50 [8] | Selectivity Kv1.2/Kv1.3 ([6]; ratio IC50[Kv1.2]/IC50[Kv1.3]) |
| --- | --- | --- | --- | --- | --- | --- | --- | --- | --- | --- | --- |
| CC[C@H](C)[C@@H]1NC(=O)[C@H](C)NC(=O)[C@H](CCCCN)NC(=O)[C@H](CC(C)C)NC(=O)[C@@H]2CSSC[C@@H](C(=O)N[C@@H](Cc3ccc(O)cc3)C(=O)N3CCC[C@H]3C(=O)N[C@@H](CCCNC(=N)N)C(=O)O)NC(=O)[C@H](CCCCN)NC(=O)[C@@H]3CSSC[C@H](NC(=O)[C@H](CCC(=O)O)NC(=O)[C@H](C(C)C)NC(=O)[C@H](CO)NC(=O)[C@H](C)NC(=O)[C@H](CO)NC(=O)[C@@H](NC(=O)[C@H](CCCNC(=N)N)NC(=O)[C@H](CCSC)NC(=O)[C@H](CC(=O)O)NC(=O)[C@H](CCSC)NC(=O)[C@@H](N)CCC(N)=O)CSSC[C@H](NC(=O)[C@H](CCCCN)NC(=O)CNC(=O)[C@H](Cc4ccccc4)NC(=O)[C@H]([C@@H](C)CC)NC(=O)[C@H](CO)NC(=O)CNC1=O)C(=O)N[C@@H](CCSC)C(=O)N[C@@H](CC(N)=O)C(=O)N[C@@H](CCCCN)C(=O)N[C@@H](CCCCN)C(=O)N3)C(=O)N[C@@H](CCCCN)C(=O)N[C@@H](CCC(N)=O)C(=O)N[C@@H](CCCCN)C(=O)N2 [Compound 1] (H-QMDMRCSASVECKQKCLKAIGSIFGKCMNKKCKCYPR-OH; disulfide 6-27, 12-32, 16-34) | 9.62 | 0.38 | > 3000 | >7900 | > 3000 | >7900 | ≥ 9.00 | 518 | 10.05 |  |  |
| CC[C@H](C)[C@@H]1NC(=O)[C@H](C)NC(=O)[C@H](CCCCN)NC(=O)[C@H](CC(C)C)NC(=O)[C@@H]2CSSC[C@@H](C(=O)N[C@@H](Cc3ccc(O)cc3)C(=O)N3CCC[C@H]3C(=O)N[C@@H](CCCNC(=N)N)C(N)=O)NC(=O)[C@H](CCCCN)NC(=O)[C@@H]3CSSC[C@H](NC(=O)[C@H](CCC(=O)O)NC(=O)[C@H](C(C)C)NC(=O)[C@H](CO)NC(=O)[C@H](C)NC(=O)[C@H](CO)NC(=O)[C@@H](NC(=O)[C@H](CCCNC(=N)N)NC(=O)[C@H](CCSC)NC(=O)[C@H](CC(=O)O)NC(=O)[C@H](CCSC)NC(=O)[C@@H](N)CC(N)=O)CSSC[C@H](NC(=O)[C@H](CCCCN)NC(=O)CNC(=O)[C@H](Cc4ccccc4)NC(=O)[C@H]([C@@H](C)CC)NC(=O)[C@H](CO)NC(=O)CNC1=O)C(=O)N[C@@H](CCSC)C(=O)N[C@@H](CC(N)=O)C(=O)N[C@@H](CCCCN)C(=O)N[C@@H](CCCCN)C(=O)N3)C(=O)N[C@@H](CCCCN)C(=O)N[C@@H](C(C)C)C(=O)N[C@@H](CCCCN)C(=O)N2 [Compound 17] (H-NMDMRCSASVECKVKCLKAIGSIFGKCMNKKCKCYPR-NH2; disulfide 6-27, 12-32, 16-34) | 9.85 | 0.42 | 912 |  | > 3000 | >7200 | ≥ 9.00 | 66 |  | 9.40 |  |
| CC[C@H](C)[C@@H]1NC(=O)[C@H](C)NC(=O)[C@H](CC(=O)O)NC(=O)[C@H](CC(C)C)NC(=O)[C@@H]2CSSC[C@@H](C(=O)N[C@@H](Cc3ccc(O)cc3)C(=O)N3CCC[C@H]3C(=O)N[C@@H](CCCNC(=N)N)C(N)=O)NC(=O)[C@H](CCCCN)NC(=O)[C@@H]3CSSC[C@H](NC(=O)[C@H](CCC(=O)O)NC(=O)[C@H](C(C)C)NC(=O)[C@H](CO)NC(=O)[C@H](C)NC(=O)[C@H](CO)NC(=O)[C@@H](NC(=O)[C@H](CCCNC(=N)N)NC(=O)[C@H](CCSC)NC(=O)[C@H](CC(=O)O)NC(=O)[C@H](CCSC)NC(=O)[C@@H](N)CC(N)=O)CSSC[C@H](NC(=O)[C@H](CCCCN)NC(=O)CNC(=O)[C@H](Cc4ccccc4)NC(=O)[C@H]([C@@H](C)CC)NC(=O)[C@H](CO)NC(=O)CNC1=O)C(=O)N[C@@H](CCSC)C(=O)N[C@@H](CC(N)=O)C(=O)N[C@@H](CCCCN)C(=O)N[C@@H](CCCCN)C(=O)N3)C(=O)N[C@@H](CCCCN)C(=O)N[C@@H](CCC(N)=O)C(=O)N[C@@H](CCCCN)C(=O)N2 [Compound 20] (H-NMDMRCSASVECKQKCLDAIGSIFGKCMNKKCKCYPR-NH2; disulfide 6-27, 12-32, 16-34) | 9.89 | 0.21 | 2530 |  | > 3000 | >14300 |  | 99 |  | 10.00 |  |
| CC[C@H](C)[C@@H]1NC(=O)[C@H](C)NC(=O)[C@H](CCCCN)NC(=O)[C@H](CC(C)C)NC(=O)[C@@H]2CSSC[C@@H](C(=O)N[C@@H](Cc3ccc(O)cc3)C(=O)N3CCC[C@H]3C(=O)N[C@@H](CCCNC(=N)N)C(N)=O)NC(=O)[C@H](CCCCN)NC(=O)[C@@H]3CSSC[C@H](NC(=O)[C@H](CCC(=O)O)NC(=O)[C@H](C(C)C)NC(=O)[C@H](CO)NC(=O)[C@H](C)NC(=O)[C@H](CO)NC(=O)[C@@H](NC(=O)[C@H](CCCNC(=N)N)NC(=O)[C@H](CCSC)NC(=O)[C@H](CC(=O)O)NC(=O)[C@H](CCSC)NC(=O)[C@@H](N)CC(N)=O)CSSC[C@H](NC(=O)[C@H](CCCCN)NC(=O)CNC(=O)[C@H](Cc4ccccc4)NC(=O)[C@H](CCCNC(=N)N)NC(=O)[C@H](CO)NC(=O)CNC1=O)C(=O)N[C@@H](CCSC)C(=O)N[C@@H](CC(N)=O)C(=O)N[C@@H](CCCCN)C(=O)N[C@@H](CCCCN)C(=O)N3)C(=O)N[C@@H](CCCCN)C(=O)N[C@@H](CCC(N)=O)C(=O)N[C@@H](CCCCN)C(=O)N2 [Compound 35] (H-NMDMRCSASVECKQKCLKAIGSRFGKCMNKKCKCYPR-NH2; disulfide 6-27, 12-32, 16-34) | 10.11 | 0.2 | 192 |  | > 3000 | >15000 |  | 18 |  | 10.00 |  |
| CCCC[C@@H]1NC(=O)[C@@H]2CSSC[C@H](NC(=O)[C@H](CCCNC(=N)N)NC(=O)[C@H](CCCC)NC(=O)[C@H](CC(=O)O)NC(=O)[C@H](CCCC)NC(=O)[C@@H](N)CC(N)=O)C(=O)N[C@@H](CO)C(=O)N[C@@H](C)C(=O)N[C@@H](CO)C(=O)N[C@@H](C(C)C)C(=O)N[C@@H](CCC(=O)O)C(=O)N[C@H]3CSSC[C@H](NC(=O)[C@H](CCCCN)NC(=O)[C@H](CCCCN)NC(=O)[C@H](CC(N)=O)NC1=O)C(=O)N[C@@H](CCCCN)C(=O)N[C@H](C(=O)N[C@@H](Cc1ccc(O)cc1)C(=O)N1CCC[C@H]1C(=O)N[C@@H](CCCNC(=N)N)C(N)=O)CSSC[C@H](NC(=O)[C@H](CO)NC(=O)[C@H](CCC(N)=O)NC(=O)[C@H](CCCCN)NC3=O)C(=O)N[C@@H](CC(C)C)C(=O)N[C@@H](CCCCN)C(=O)N[C@@H](C)C(=O)N[C@@H]([C@@H](C)CC)C(=O)NCC(=O)N[C@@H](CO)C(=O)N[C@@H]([C@@H](C)CC)C(=O)N[C@@H](Cc1ccccc1)C(=O)NCC(=O)N[C@@H](CCCCN)C(=O)N2 [Compound 48] (H-N[Nle]D[Nle]RCSASVECKQSCLKAIGSIFGKC[Nle]NKKCKCYPR-NH2; disulfide 6-27, 12-32, 16-34) | 9.85 | 0.37 | > 3000 | >8200 | > 3000 | >8200 | ≥ 9.00 | > 3000 | 10.15 |  | >8200 |
| H-NMDMRCSASVECKQKCLKAIGSIFGKCMNKKCKCYPRRRTA-NH2 (disulfide 6-27, 12-32, 16-34) [Compound 23] | 10.26 | 0.15 | 215 |  | 626 |  | ≥ 9.00 | 28 | 10.22 |  |  |

From patent US11780893B2, “Kv1.3 blockers” (Zealand Pharma A/S, priority 2019, dated 2023)
